# Source: US6403618B1, “Agent and method for controlling angiogenesis” (Novactyl, Inc., priority 2000, dated 2002)
# What was measured:
# metastatic cancer = experiment: Systemic administration in metastatic cancer; format: in vivo; details: 00 gelatin capsules at 500 mg per capsule
# Excerpt: A systemic preparation of a picolinic acid, its derivatives or analogs containing approximately 1% to 100% active ingredient may be administered orally, intravenously or by any acceptable route for the treatment of cancer and systemic infections. […] The preparation can be provided as a flavored oral solution. Likewise, an injectable form may be prepared.
# [1] = test system: papilloma virus ulcerative lesion; experiment: Treatment of ulcerative lesion with topical picolinic acid; format: in vivo, horse
# Procedure: The lesion was progressive, with total loss of hair over the area. The diagnosis was viral disease, i.e. papilloma virus, complicated by fungal infection. The horse was treated with conventional local antibiotic and chemical therapies for about four months.
# An aqueous solution of 10% picolinic acid in deionized water was applied every other day with a cotton swab over and around the lesion. The treatment continued for 45 days. The course of the regression of the viral lesion was as follows: […]
# iron in the cells = details: cited from earlier work
# human papilloma viruses = experiment: Treatment of patients with papilloma virus skin lesions (common warts); format: in vivo
# Procedure: Five patients ranging in age from 11 years to 52 years and each having at least one common wart induced by human papilloma viruses was treated with a topical preparation of picolinic acid. The topical preparation was either solution of 10% to 20% picolinic acid in deionized water or a topical ointment wherein 10% picolinic acid is incorporated into Aquaphor, i.e.1 g of picolinic acid in 10 g of Aquaphor.
# LD-50 = details: in vivo
# [2] = test system: Microbial and fungal growth; experiment: Preservative use in foods and on fresh fruits
# Excerpt: (§1) The chelating agents of the present invention can be used as preservatives in perishable items such as foods and pharmaceuticals and to prevent fungal growth on the surface of fresh fruits. Presently chemicals such as citrashine orthophenilphenol thiabendazole are used. […] Microbial and fungal growth is inhibited while the food components are unaffected. The preservative of the present invention has less likelihood of toxicity or untoward reactions if ingested that the present, complex chemical antifungals. The preferred concentration of picolinic acid or acceptable derivative for this use is approximately 1% to approximately 99%.
# transformed cells = details: cited from earlier work
# LoVo cells = experiment: Effects of picolinic acid on growth (total cell protein); format: cell-based
# Procedure: (§2) Cells were plated at 1.5×10^5 cells/60-mm dish; 48 hours later, the medium was removed, and new media with or without 3 mM picolinic acid was added. Total cell protein was determined at the indicated times; each point is the average of triplicate measurements from 2 cultures.
# WI-38 cells = experiment: as above; format: cell-based
# Procedure: as §2
# [3] = Stability experiments as preservative in foods and on fresh fruits; format: physicochemical; details: in foods and on the surface of fresh fruits
# Excerpt: as §1
# recurrent plantar wart = experiment: Treatment of virus-induced plantar ulcer; format: in vivo, human
# Procedure: A patient with recurrent plantar wart of about 2 cm in diameter was treated with topical picolinic acid. The patient, a pathologist who had difficulty walking because of the pain caused by the ulcer, had experimented with numerous medications for more than three months without any significant results prior to treatment with the picolinic acid. It is relevant to note that many plantar ulcers are transformed into malignant tumors.
# The patient was treated with a solution of 10% picolinic acid in deionized water for one week. […] They then were treated with 10% picolinic acid in Aquaphor. The ointment was placed on the ulcer and on a patch. The patch was replaced every 24 hours.
# recombinant MPS-1 = recombinant MPS-1 (Homo sapiens, UniProt P42677); experiment: Zinc dependent binding of MPS-1 to DNA, gel shift assays and 65Zn; format: biochemical
# Excerpt: MPS-1 is a ubiquitous tumor marker and cell growth stimulator and is described in detail in the inventor's U.S. Pat. No. Re.35,585 (No. 5,243,041). MPS-1 has one zinc finger domain of the type CCCC. […] This is detected by a change in the electrophoretic mobility of MPS-1 under non-denaturing conditions. These experiments indicate that picolinic acid and derivatives should remove zinc and denature various types of zinc finger or zinc ring proteins, whether known or heretofore undiscovered, including viral proteins such as nucleocapsid p7 proteins, as will be explained further. Furthermore, the inventor has determined that any chemical compound, whether known or heretofore undiscovered, that will remove the zinc (or other metal) and denature the proteins or that will form a ternary complex (protein-zinc-chelator) can be effective as a therapeutic agent or as an autologous immune response modulator, as will be discussed in greater detail below.
# psoriasis = experiment: Treatment of proliferative skin disorders; format: in vivo, human; details: topical, preliminary information
# Excerpt: Several patients suffering from proliferative skin disorders such as psoriasis have been included in a recent ongoing study of the anti-proliferative effects of topical picolinic acid. […] The patients may be treated with a topical application of approximately 5% to 20% picolinic acid, or a derivative thereof, in an absorption base. Alternatively, the patient may be treated with a solution containing approximately 5% to 20% picolinic acid, or derivative, in deionized water. The topical preparation may be applied twice a day or in an alternative pharmacologically acceptable regimen.
# [4] = test system: metastatic breast cancer lesions; experiment: Treatment of metastatic disease to the skull from breast cancer; format: in vivo, human; details: topical 10% picolinic acid in Aquaphor, changed twice daily
# Procedure: A person with metastatic breast cancer to the skin and bone of the skull was treated with a topical preparation of 10% picolinic acid in Aquaphor. The preparation was applied to the cancerous lesions and to a bandage and changed twice daily. The multiple cancer lesions were approximately 1 to 1.5 cm in diameter.
# KB cells = experiment: Effects of picolinic acid on growth (total cell protein); format: cell-based, human; details: 3 mM
# Procedure: as §2
# normal cells = details: cited from earlier work
# Excerpt for actinic lesions: Two patients with actinic lesions (average of 5 lesions per patient, each lesion being approximately 3 mm to 5 mm in diameter) were diagnosed as requiring liquid nitrogen removal of the lesions. The patients received a daily application of 10% picolinic acid in Aquaphor.
structure (smiles),measurement,setting,value
"O=C(O)c1ccccn1 [picolinic acid, 2-Pyridine carboxylic acid]",control of metastatic cancer,metastatic cancer,effective
same,lesion appearance,"[1]; 10% aqueous solution topical every other day, after 10 days",central necrosis
same,diameter of the lesion,"[1]; 10% aqueous solution topical, after 20 days, 3 inch at start",approximately 2 inches
same,diameter of the lesion,"[1]; 10% aqueous solution topical, after 30 days",about 1 inch
same,lesion outcome,"[1]; 10% aqueous solution topical, at 45 days",resolved with some scar tissue
same,recurrence,[1]; after three additional months,without evidence of recurring disease
same,incorporation of iron into the cells,iron in the cells,inhibits
same,removal of radioiron from the cells,iron in the cells,effectively removes
same,resolution with ointment versus solution,human papilloma viruses; 10% picolinic acid in Aquaphor,faster resolution
same,wart appearance,"human papilloma viruses; topical 10-20% solution or 10% Aquaphor ointment, after seven days",central necrosis of the wart occurred
same,"course of disease, 10% versus 20% solutions",human papilloma viruses; topical solution in deionized water,no significant difference
same,LD-50,LD-50,140 grams/70 Kg
same,Microbial and fungal growth,[2],inhibited
same,cytotoxicity,transformed cells,cytotoxicity and cell death was observed
same,cell cycle arrest,transformed cells; short-term treatment,blocked in different phases of the cell cycle
same,growth of LoVo cells,"LoVo cells; 3 mM picolinic acid, FIG. 2",inhibited
same,cytotoxicity,"LoVo cells; 3 mM, longer exposure 48-72 hours",cytotoxicity and cell death was observed
same,growth of normal WI-38 cells,"WI-38 cells; 3 mM picolinic acid, within 24 hours",inhibited
same,toxic effects,"WI-38 cells; 3 mM, up to 72 hours of treatment",no toxic effects
same,stability as preservative,[3],highly stable
same,lesion outcome,"actinic lesions; daily 10% picolinic acid in Aquaphor, approximately three weeks, two patients",completely cured
same,effects on normal skin,actinic lesions; in vivo,without any effects on normal skin
same,ulcer appearance,recurrent plantar wart; 10% solution in deionized water for one week,Central necrosis was noted
same,ulcer outcome,"recurrent plantar wart; then 10% in Aquaphor with patch, after an additional three weeks",resolved
same,removal of radioactive 65Zn from MPS-1,"recombinant MPS-1; CCCC zinc finger, electrophoretic mobility, non-denaturing conditions",remove radioactive ^65Zn from MPS-1
same,zinc dependent binding of recombinant MPS-1 to DNA,recombinant MPS-1; gel shift assays,inhibit
same,regression of psoriasis,psoriasis,significant effect in inducing regression
same,time until lesions resolved with scar tissue,[4],approximately 35 days
same,cytotoxic effects relative to LoVo cells,KB cells,not as pronounced as in the case of LoVo cells
same,growth and cytotoxicity compared with LoVo results,KB cells,Equivalent results were obtained
same,toxic effects,"normal cells; longer exposure, most normal cells",no toxic effects
same,cell cycle arrest,normal cells; short-term treatment,"arrests normal cells in G1, (Go)"
